Like-named read-outs stand apart in the source and are kept apart here.
Legend:
[1] = FAERS, ref [45], cited from earlier work; for # of Specific AE Occurrence With Drug A With Drug B: with methotrexate; for # of Specific AE Occurrence With Drug A Without Drug B: without methotrexate
INS-1E cells [2] = format: cell-based, rat
HeLa cells = assay: cells; format: cell-based
[3] = tested on: tonic K+ channel activity in INS-1E cells; assay: cells; format: cell-based, rat
INS-1E cells [4] = assay: cells; format: cell-based, rat
STC-1 cell line = format: cell-based, mouse; settings: assay number 13
NCI-H716 cells = assay: cells; format: cell-based, Human; settings: assay number 12
Colo320 = assay: cells; format: cell-based; settings: assay number 27; basal
DLD-1 = assay: cells; format: cell-based; settings: assay number 23; basal
RKO = assay: cells; format: cell-based; settings: assay number 29; basal
SNU-C1 = assay: cells; format: cell-based; settings: assay number 30; basal
HT-29 = assay: cells; format: cell-based; settings: assay number 28; basal
HCT116 = assay: cells; format: cell-based; settings: assay number 25; basal
SW480 = assay: cells; format: cell-based; settings: assay number 24; basal
[5] = assay number 10, 0.1 mM glucose
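Throughout, for 5mMGluc INS1E SecretionMod IC50/EC50: secreted insulin quantified by homogeneous immunoassay.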
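Throughout, for IC50/EC50, 5mMGluc INS1E SecretionMod (assay number 8): secreted insulin quantified by homogeneous immunoassay.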

[H]/N=C(\N/C(=N/[H])NCCCCCCNC(=N)NC(=N)Nc1ccc(Cl)cc1)Nc1ccc(Cl)cc1 [Chlorhexidine]
Adjusted Z-Score ([1]; AE OSTEONECROSIS, Drug A with vs without methotrexate): -2.347
# of Specific AE Occurrence With Drug A With Drug B ([1]; AE OSTEONECROSIS): 31
# of Specific AE Occurrence With Drug A Without Drug B ([1]; AE OSTEONECROSIS): 899

COc1cccc2c1C(=O)c1c(O)c3c(c(O)c1C2=O)C[C@@](O)(C(=O)CO)C[C@@H]3O[C@H]1C[C@H](N)[C@H](O)[C@H](C)O1 [Doxorubicin]
# of Specific AE Occurrence With Drug A With Drug B ([1]; AE BONE DISORDER): 49
# of Specific AE Occurrence With Drug A Without Drug B ([1]; AE BONE DISORDER): 912

Cc1ccc(S(=O)(=O)NC(=O)NN2CC3CCCC3C2)cc1 (stereo not drawn) [NCGC00095107-09]
0.1mMGluc_INS1E SecretionMod Act IC50/EC50 (INS-1E cells [2]; assay number 9, 0.1 mM glucose): > 33.33 µM
Hela CellCycMod PI 2N IC50/EC50 (HeLa cells; assay number 14, 2N): > 10 µM
Hela CellCycMod PI S Phase IC50/EC50 (HeLa cells; assay number 15, S phase): > 10 µM
Hela CellCycMod PI 4N IC50/EC50 (HeLa cells; assay number 16, 4N): > 10 µM
Hela CellCycMod PI MI IC50/EC50 (HeLa cells; assay number 17, MI): > 10 µM
Hela CellCycMod PI Cell Number IC50/EC50 (HeLa cells; assay number 18, cell number): > 10 µM
0.1mMGluc_INS1E FluxOR IC50/EC50 [3, 5]: 0.6403 µM
5mMGluc_INS1E SecretionMod IC50/EC50 (INS-1E cells [4]; assay number 8, 5 mM glucose): 1.834 µM

Clc1ccc2c(c1)CCc1cccnc1C2=C1CCNCC1 [NCGC00159325-05]
0.1mMGluc_INS1E SecretionMod Act IC50/EC50 (INS-1E cells [2]; assay number 9, 0.1 mM glucose): > 33.33 µM
mSTC-1 GLP1 Secretion IC50/EC50 (STC-1 cell line): > 40 µM
hNCI-H716 GLP1 Secretion IC50/EC50 (NCI-H716 cells): > 40 µM
0.1mMGluc_INS1E FluxOR IC50/EC50 [3, 5]: > 33.3333 µM
5mMGluc_INS1E SecretionMod IC50/EC50 (INS-1E cells [4]; assay number 8, 5 mM glucose): 7.105 µM

CCN(CC)CCOc1ccccc1C(=O)CCc1ccccc1 [NCGC00160484-02]
IC50/EC50, 0.1mMGluc_INS1E SecretionMod Act (assay number 9) (INS-1E cells [2]; 0.1 mM glucose): > 33.33 µM
IC50/EC50, Hela CellCycMod PI 2N (assay number 14) (HeLa cells; 2N): > 10 µM
IC50/EC50, Hela CellCycMod PI 4N (assay number 16) (HeLa cells; 4N): > 10 µM
IC50/EC50, Hela CellCycMod PI Cell Number (assay number 18) (HeLa cells; Cell Number): > 10 µM
IC50/EC50, Hela CellCycMod PI MI (assay number 17) (HeLa cells; MI): > 10 µM
IC50/EC50, Hela CellCycMod PI S Phase (assay number 15) (HeLa cells; S Phase): > 10 µM
IC50/EC50, 0.1mMGluc_INS1E FluxOR (assay number 10) ([3]; 0.1 mM glucose): 6.739 µM
IC50/EC50, 5mMGluc_INS1E SecretionMod (assay number 8) (INS-1E cells [4]; 5 mM glucose): 3.892 µM

CN(C)CCOC(c1ccccc1)c1ccc(Br)cc1 (stereo not drawn) [NCGC00249891-01]
Basal_Viability ATP Colo 320 IC50/EC50 (Colo320): > 20 µM
0.1mMGluc_INS1E SecretionMod Act IC50/EC50 (INS-1E cells [2]; assay number 9, 0.1 mM glucose): > 33.33 µM
Basal_Viability ATP DLD-1 IC50/EC50 (DLD-1): > 20 µM
Basal_Viability ATP RKO IC50/EC50 (RKO): > 20 µM
Basal_Viability ATP SNU-C1 IC50/EC50 (SNU-C1): 3.0987 µM
Basal_Viability ATP HT-29 IC50/EC50 (HT-29): 17.0256 µM
Basal_Viability ATP HCT116 IC50/EC50 (HCT116): > 20 µM
Hela CellCycMod PI 2N IC50/EC50 (HeLa cells; assay number 14, 2N): > 10 µM
Hela CellCycMod PI S Phase IC50/EC50 (HeLa cells; assay number 15, S phase): > 10 µM
Hela CellCycMod PI 4N IC50/EC50 (HeLa cells; assay number 16, 4N): > 10 µM
Hela CellCycMod PI MI IC50/EC50 (HeLa cells; assay number 17, MI): > 10 µM
Hela CellCycMod PI Cell Number IC50/EC50 (HeLa cells; assay number 18, cell number): > 10 µM
0.1mMGluc_INS1E FluxOR IC50/EC50 [3, 5]: 10.9665 µM
Basal_Viability ATP SW480 IC50/EC50 (SW480): > 20 µM
5mMGluc_INS1E SecretionMod IC50/EC50 (INS-1E cells [4]; assay number 8, 5 mM glucose): 2.767 µM

Cc1ccc(CCn2c3c(c4cc(Cl)ccc42)CN(C)CC3)cn1 [NCGC00253726-01]
0.1mMGluc_INS1E SecretionMod Act IC50/EC50 (INS-1E cells [2]; assay number 9, 0.1 mM glucose): > 33.33 µM
Hela CellCycMod PI 2N IC50/EC50 (HeLa cells; assay number 14, 2N): > 10 µM
Hela CellCycMod PI S Phase IC50/EC50 (HeLa cells; assay number 15, S phase): > 10 µM
Hela CellCycMod PI 4N IC50/EC50 (HeLa cells; assay number 16, 4N): > 10 µM
Hela CellCycMod PI MI IC50/EC50 (HeLa cells; assay number 17, MI): > 10 µM
Hela CellCycMod PI Cell Number IC50/EC50 (HeLa cells; assay number 18, cell number): > 10 µM
0.1mMGluc_INS1E FluxOR IC50/EC50 [3, 5]: 39.9057 µM
5mMGluc_INS1E SecretionMod IC50/EC50 (INS-1E cells [4]; assay number 8, 5 mM glucose): 4.201 µM

CC(CC1c2ccccc2CCc2ccccc21)CN(C)C (stereo not drawn) [NCGC00274277-01]
0.1mMGluc_INS1E SecretionMod Act IC50/EC50 (INS-1E cells [2]): > 33.33 µM
Hela CellCycMod PI 2N IC50/EC50 (HeLa cells): > 10 µM
Hela CellCycMod PI 4N IC50/EC50 (HeLa cells): > 10 µM
Hela CellCycMod PI Cell Number IC50/EC50 (HeLa cells): > 10 µM
Hela CellCycMod PI MI IC50/EC50 (HeLa cells): > 10 µM
Hela CellCycMod PI S Phase IC50/EC50 (HeLa cells): > 10 µM
0.1mMGluc_INS1E FluxOR IC50/EC50 [3]: 19.9984 µM
5mMGluc_INS1E SecretionMod IC50/EC50 (INS-1E cells [4]): 3.6382 µM

From publication PMC4503722, “Novel Phenotypic Outcomes Identified for a Public Collection of Approved Drugs from a Publicly Accessible Panel of Assays” (PLoS ONE, 2015)
